In data set [1] the test system is Fibroblasts of human origin. Nature of the data set: Fibroblast cytotoxicity test (MTT). The class given is cell-based. The settings on record: 24 h. As to the method:
A. Fibroblast cytotoxicity test
Test materials: Fibroblasts of human origin (Guangdong Boxi Biotechnology Co., Ltd., Lot No. Fb20081902), DMEM culture medium (Gibco, 23042301, expiration date on 230522), PBS (Solarbio, P1010), MTT (Sigma, M5655), DMSO (Sigma, D4540-1L), CO2 incubator (Thermo, 150I), super-clean bench (AIRTECH, SW-CJ-1F), inverted microscope (Olympus, CKX53).
Test methods: • 1) Cell inoculation: After cell resuscitation, the cells were inoculated into 96-well plates when the plating rate reached around 60%, and were incubated overnight in an incubator (37°C, 5% CO2). • 2) Test grouping: The blank group, solvent control group, positive control group, and sample group were set for the test. In the sample group, 7 concentration gradients were set for each sample and 3 duplicate wells were set for each concentration gradient. • 3) Formulation of solutions: Sample working solutions at different concentrations were formulated based on the test concentrations of 0.0781 µM, 0.1563 µM, 0.3125 µM, 0.625 µM, 1.25 µM, 2.5 µM, and 5 µM. • 4) Administration: Administration was performed when the cell plating rate in the 96-well plates reached 50% to 60%. 200 µL of culture medium per well was added for the solvent control group; 200 µL of culture medium containing 10% DMSO per well was added for the positive control group; 200 µL of culture medium containing the sample at a corresponding concentration per well was added for the sample group; The blank group had no cell inoculation, for which only 200 µL of cell culture medium was added. After the administration was complete, the 96-well plates were incubated in an incubator (37°C, 5% CO2) for 24 h. • 5) Detection: After 24 h of cell incubation and culture, the supernatant was discarded, and MTT working solution (0.5 mg/mL) was added. Incubation was performed at 37°C for 4 h in the dark. After the incubation was completed, the supernatant was discarded and 150 µL DMSO was added to each well. The OD value was read at 490 nm. • 6) Calculation of relative viability of cells: Calculation was performed according to the formula below: Relative viability of cells = (Sample well OD−Blank well OD)/(Solvent control well OD−Blank well OD) × 100%. [formula]

In data set [2] the test system is Collagen I (type I collagen). Nature of the data set: Collagen I elevation effect in fibroblasts (ELISA). It is filed as cell-based, human. The settings on record: 1 µM, 24 h; result in words. An excerpt: (§1) B. Collagen I (type I collagen) elevation effect in fibroblasts, hyaluronic acid (HA) elevation effect in fibroblasts, and elastin (ELN) elevation effect in fibroblasts
(§2) Test materials: Fibroblasts of human origin (Guangdong Boxi Biotechnology Co., Ltd., Lot No. Fb20081902), DMEM culture medium (Gibco, 23042301, expiration date 230522), PBS (Solarbio, P1010), TGF-β1 (Peprotech, 230504), Collagen I ELISA Kit (Cusabio, B21025824), Elastin ELISA kit (Abcam, GR3446070-2), HA ELISA kit (RD, P325066). CO2 incubator (Thermo, 1501), super-clean bench (AIRTECH, SW-CJ-1F), microplate reader (BioTek, Epoch).
(§3) Test methods: • 1) Inoculation: After cell resuscitation, the cells were inoculated into 6-well plates when the plating rate reached around 60%, and were incubated overnight in an incubator (37°C, 5% CO2). • 2) Formulation of solutions: The cyclic peptide compounds in the sample group, PC2 (Biotinoyl-GHK, [drawing 2] ) and PC3 [drawing 3] in the positive reference group were all at the concentration of 1 µM, and the test substance working solutions were formulated. Only the cell culture medium was added for the blank control group (BC). • 3) Administration: When the cell plating rate in the 6-well plates reached 40% to 60%, administration was performed at 2 mL per well. 3 duplicate wells were set for each group. Incubation was performed in an incubator (37°C, 5% CO2) for 24 h. • 4) ELISA assay: The ELISA assay was performed according to the instructions of the ELISA kit, with the detection indicators being Collagen I elevation effect in the fibroblasts, HA elevation effect in the fibroblasts, and elastin elevation effect in the fibroblasts.

Another data set concerns hyaluronic acid (HA). Nature of the data set: Hyaluronic acid (HA) elevation effect in fibroblasts (ELISA). It is filed as cell-based, human. More on the design: HA elevation effect in the fibroblasts: unit not given here. The settings on record: 1 µM, 24 h.
Text: as §1, §2, §3

The test system of the next data set is elastin (ELN). The data set is described as follows: Elastin (ELN) elevation effect in fibroblasts (ELISA). It is filed as cell-based, human. The arrangement: Elastin elevation effect in the fibroblasts: unit not given here. Conditions: 1 µM, 24 h.
Text: as §1, §2, §3

Values joined by “and” are separate entries in the source; they are usually repeats but may differ in a detail not shown here. Equal entries are not always repeated. Residues, ends and D or L forms follow the SMILES beside them.

For the molecule `C[S+](C)[O-]` [10% DMSO, DMSO], the “Relative viability of cells” value in data set [1] (Positive control 10% DMSO, 1440 min) is 0.30% and 1.87% and 1.62% and 1.17% and 0.61% and 2.07% and 0.54% and 0.43%.
Turning to `CC(C)C[C@@H]1NC(=O)[C@H](Cc2ccccc2)NC(=O)[C@H](CC(C)C)NC(=O)[C@H](CCCCN)NC(=O)[C@H](Cc2c[nH]cn2)NC(=O)CNC1=O` [compound 292] (cyclo(FLGHKL)), the “Relative viability of cells” value is recorded as 107.68% in data set [1] (0.0781 µM, OD 490 nm); 107.63% in data set [1] (0.1563 µM, OD 490 nm); 105.05% in data set [1] (0.3125 µM, OD 490 nm); 102.37% in data set [1] (0.625 µM, OD 490 nm); 102.07% in data set [1] (1.25 µM, OD 490 nm); 102.88% in data set [1] (2.5 µM, OD 490 nm). The “Relative viability of cells” value in data set [1] (5 µM, OD 490 nm) is 102.88%. For the same molecule, in data set [2], the “type I collagen (Collagen I) content compared to the BC” value is reported as “significant increase”. The “HA elevation effect in the fibroblasts” value with hyaluronic acid (HA) (ELISA, Blank control (BC) 1402.44) is 2635.98. In addition, the “hyaluronic acid (HA) content compared to the BC” value with hyaluronic acid (HA) (result in words) was “significant increase”. Also, the “Elastin elevation effect in the fibroblasts” value in the data set with elastin (ELN) (ELISA, Blank control (BC) 756.52) is recorded as 1278.99. Moreover, in the data set with elastin (ELN) (result in words), the “elastin content compared to the BC” value is reported as “significant increase”.

These data come from patent EP4786484A1, “CYCLIC PEPTIDE COMPOUND AND USE THEREOF” (Shenzhen Zhongge Biological Technology Co., Ltd., priority 2023, dated 2026).
